Read-outs that look alike come from different tables or passages of the source.
Key:
[1] = system: H3K18Ac in HB-CLS-2 cells; assay: H3K18AC in-cell western (ICW) assay; assay type: cell-based; conditions: H3K18Ac in-cell western, read-out: CREBBP ICW IC50
Source text: The following example describes methods and materials relating to an H3K18AC in-cell western assay. IC50 values (micromolar (μM)) are summarized in Table 1, Table 2, and Table 3 under the column labeled: “CREBBP ICW IC50 (micromolar).”
MATERIALS: HB-CLS-2 cell line, DMEM: Ham's F12 medium (1:1 mixture), penicillin-streptomycin, heat inactivated fetal bovine serum, D-PBS, Odyssey blocking buffer, 800CW goat anti-rabbit IgG (H+L) antibody, Licor Odyssey CLx Infrared Scanner, H3K18Ac rabbit monoclonal antibody. DRAQS fluorescent probe solution (5 mM), and 100% methanol were commercially available. HB-CLS-2 adherent cells were maintained in complete growth medium (DMEM: Ham's F12 supplemented with 10% v/v heat inactivated fetal bovine serum) and cultured at 37° C. under 5% CO2.
METHOD: Cell Treatment, ICW for detection of H3K18Ac and DNA content. HB-CLS-2 cells were seeded in assay medium (DMEM: Ham's F12 supplemented with 10% v/v heat inactivated fetal bovine serum and 1% Penicillin/Streptomycin) at a concentration of 80,000 cells per mL in a Poly-D-Lysine coated 384-well culture plates at 50 μL per well. Plates were incubated at room temperature for 30 minutes and then incubated at 37° C., 5% CO2 for additional 16-24 hours. Compounds and DMSO normalization were then added directly to the plates using a D300 Digital Dispenser and returned to the incubator at 37° C., 5% CO2 for 2 hrs. After the incubation, the contents of the plates were discarded into the appropriate waste stream and blotted on laboratory tissue to remove residual liquid. 90 μL per well of 100% ice cold methanol was added to the plates and incubated at room temperature for 15 minutes. Then methanol was then discarded into the appropriate waste stream and the plates again blotted on laboratory tissue to remove residual liquid. Plates were transferred to a Biotek 405 plate washer and washed 3 times with 100 μL per well of wash buffer (1X PBS containing 0.1% Triton X-100 (v/v)). Next, 50 μL per well of Odyssey blocking buffer with 0.1% Tween 20 (v/v) was added to each plate and incubated for 1 hour at room temperature. Blocking buffer was removed and 20 μL of primary antibody were added (α-H3K18Ac diluted 1:800 in Odyssey buffer with 0.1% Tween 20 (v/v)) and plates were incubated overnight (16 hours) at 4° C. Plates were washed 5 times with 100 μL per well of wash buffer. Next 20 μL per well of secondary antibody was added (1:400 800CW goat anti-rabbit IgG (H+L) antibody, 1:2000 DRAQ5 in Odyssey buffer with 0.1% Tween 20 (v/v)) and incubated for 1 hour at room temperature. The plates were washed 3 times with 100 μL per well wash buffer then 3 times with 100 μL per well of water. Plates were allowed to dry at room temperature then imaged on the Licor Odyssey CLx machine which measured integrated intensity at 700 nm and 800 nm wavelengths. Both 700 and 800 channels were scanned.

CREBBP (1084-1701) = molecular target: T1, CREBBP (1084-1701) (Homo sapiens, UniProt Q92793); assay: Biochemical assay for CREBBP (1084-1701), SAMDI; conditions: SAMDI, read-out: CREBBP Biochemistry IC50
T1 construct: measured in the following biochemical assay using CREBBP (1084-1701); purchased
T1 sequence (Q92793 1084-1701): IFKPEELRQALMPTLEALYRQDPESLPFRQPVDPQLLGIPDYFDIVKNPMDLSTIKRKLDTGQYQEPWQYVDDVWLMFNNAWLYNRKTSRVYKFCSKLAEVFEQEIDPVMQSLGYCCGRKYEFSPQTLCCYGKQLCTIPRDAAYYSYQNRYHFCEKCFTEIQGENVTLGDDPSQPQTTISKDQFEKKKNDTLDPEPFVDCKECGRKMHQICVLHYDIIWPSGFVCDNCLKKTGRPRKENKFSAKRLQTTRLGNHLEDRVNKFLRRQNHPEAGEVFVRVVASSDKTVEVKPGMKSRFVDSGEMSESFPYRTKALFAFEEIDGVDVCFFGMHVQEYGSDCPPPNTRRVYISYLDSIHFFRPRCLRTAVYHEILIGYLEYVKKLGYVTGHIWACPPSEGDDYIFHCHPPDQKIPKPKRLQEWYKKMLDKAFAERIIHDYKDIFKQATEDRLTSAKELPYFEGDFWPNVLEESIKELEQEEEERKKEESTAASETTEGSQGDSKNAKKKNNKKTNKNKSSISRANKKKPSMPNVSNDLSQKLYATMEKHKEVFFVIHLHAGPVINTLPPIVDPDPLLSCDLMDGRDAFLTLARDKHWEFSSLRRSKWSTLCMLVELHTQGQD
Source text: The following example describes materials and methods relating to a biochemical assay for CREBBP (1084-1701). IC50 values (micromolar (μM)) are summarized in Table 1, Table 2, and Table 3 under the column labeled: “CREBBP Biochemistry IC50 (micromolar).”
MATERIALS: Reagents 1M Tris pH 8.0, Tween 20 10%, DTT, bovine serum gelatin (BSG) 2%, Peptide #233 (biotin-H3 11-25, K14R, K23R), Acetyl-CoA, CREBBP (1084-1701), formic acid (100%), and sodium bicarbonate were commercially available.
METHODS: The effect of compounds was measured in the following biochemical assay using CREBBP (1084-1701). Enzyme mix 30 μL per well was added using a Multi-drop to wells of prepared Compound Stock plate. The enzyme was incubated in the Compound Stock plate for 30 minutes at room temperature. Substrate mix, 20 μL per well, was added to Compound Stock plate using a Multi-drop. The plate was covered and incubate 30 minutes at room temperature. The reaction was stopped with addition of 5 μL per well of 5% formic acid using a Multi-drop. The plate was Incubated for 30 minutes at room temperature. The reaction mixture was neutralized with addition of 5 μL per well of 10% sodium bicarbonate using a Multi-drop. The plate was Incubated for 35 minutes at room temperature. The reaction mixture was Transferred 2.5 μL per well to a SAMDI biochip. The plate was Incubated for 60 minutes at room temperature. The samples were washed, dried, and matrix applied to SAMDI biochip. The SAMDI biochip was then read on the mass spectrometer.

| IC50 ([1]; HB-CLS-2 cells) | IC50 (CREBBP (1084-1701)) | IC50 [1] | SMILES |
| --- | --- | --- | --- |
| 0.58 µM | 0.072 µM | – | CCc1ccc2nc(-c3ccccc3Cl)nc(C(=O)N(C)Cc3cnn(CC)c3C)c2c1 [Compound 312] |
| 20 µM | 76 µM | – | CCc1onc(CN(C)C(=O)c2nc(-c3ccccc3Cl)nc3ccc(Cl)cc23)c1C [Compound 231] |
| – | 0.47 µM | 1.9 µM | CCn1ncc(CN(C)C(=O)c2cc(-c3ccccc3Cl)nc3cc(Cl)c(Cl)cc23)c1C [Compound 97] |
| 0.57 µM | 0.22 µM | – | CCn1ncc(CN(C)C(=O)c2nc(-c3ccccc3C#N)nc3ccc(Cl)cc23)c1C [Compound 294] |
| – | 0.4 µM | 2 µM | CCn1ncc(CN(C)C(=O)c2cc(-c3ccccc3OC)nc3ccc(Cl)cc23)c1C [Compound 98] |
| 1.9 µM | 0.4 µM | – | CCc1noc(CN(C)C(=O)c2nc(-c3ccccc3Cl)nc3ccc(Cl)cc23)c1C [Compound 356] |
| 5.6 µM | 0.53 µM | – | CCN(Cc1cnn(CC)c1C)C(=O)c1nc(-c2cccc(Cl)c2)nc2ccc(Cl)cc12 [Compound 347] |
| 20 µM | 192 µM | – | CCn1ncc(CN(C)C(=O)c2nc(-c3cnn(C4CCNC4)c3)nc3ccc(Cl)cc23)c1C (centres unmarked) [Compound 206] |
| 3.9 µM | 2 µM | – | CCn1ncc(CN(C)C(=O)c2nc(-c3cccc(C#N)c3)nc3ccc(Cl)cc23)c1C [Compound 301] |
| 6.4 µM | 0.63 µM | – | CCn1ncc(CN(C)C(=O)c2cc(-c3ccccc3Cl)nc3c(C)cc(Cl)cc23)c1C [Compound 350] |
| 20 µM | 57 µM | – | CCn1ncc(CN(C)C(=O)c2nc(-c3ccc(OCCCN(C)C(=O)OC(C)(C)C)cc3)nc3ccc(Cl)cc23)c1C [Compound 242] |
| 15 µM | 5.5 µM | – | CCn1ncc(CN(C)C(=O)c2cc(-c3cccc(Cl)c3)nc3ccc(N(C)C)cc23)c1C [Compound 369] |
| 20 µM | 135 µM | – | CCn1ncc(CN(C)C(=O)c2nc(-c3cnn(CCNC)c3)nc3ccc(Cl)cc23)c1C [Compound 213] |
| 4.5 µM | 2.3 µM | – | CCn1ncc(CN(C)C(=O)c2nc(-c3ccc(OC)cc3)nc3ccc(Cl)cc23)c1C [Compound 373] |
| 1.9 µM | 1.9 µM | – | CCn1ncc(CN(C)C(=O)c2nc(-c3cscn3)nc3ccc(Cl)cc23)c1C [Compound 313] |
| – | 26 µM | – | CCn1ncc(CN(C)C(=O)c2cc(-c3cnn(C)c3)nc3ccc(Cl)cc23)c1C [Compound 289] |
| – | 0.98 µM | 4.3 µM | CCn1ncc(CN(C)C(=O)c2cc(-c3cccc(Cl)c3)nc3ccc(C)cc23)c1C [Compound 126] |
| 0.67 µM | 0.00089 µM | – | CCn1ncc(CN(C)C(=O)c2nc(-c3cccc(Br)c3)nc3ccc(Cl)cc23)c1C [Compound 283] |
| 0.72 µM | 0.028 µM | – | CCn1ncc(CN(C)C(=O)c2nc(-c3cccc(Cl)c3)nc3ccc(COC)cc23)c1C [Compound 357] |
| – | 72 µM | – | CN(Cc1cnn2c1CCC2)C(=O)c1cc(-c2cccc(Cl)c2)nc2ccc(Cl)cc12 [Compound 367] |
| – | 48 µM | – | CCn1ncc(CN(C)C(=O)c2cc(-c3ccccc3F)nc3ccccc23)c1C [Compound 378] |
| – | 0.0032 µM | – | CCc1ncc(CN(C)C(=O)c2nc(-c3cccc(Cl)c3Cl)nc3ccc(Cl)cc23)n1C [Compound 274] |
| – | 66 µM | – | CCn1ncc(CN(C)C(=O)c2cc(-c3ccccc3)nc3ccc(OC)cc23)c1C [Compound 272] |
| – | 102 µM | – | CCc1ccc2c(C(=O)N(C)Cc3cnn(CC)c3C)cc(-c3ccccc3Cl)nc2c1 [Compound 375] |

| IC50 ([1]; HB-CLS-2 cells) | IC50 (CREBBP (1084-1701)) | IC50 [1] | SMILES |
| --- | --- | --- | --- |
| – | 0.29 µM | – | CCc1ccc2nc(-c3cccc(Cl)c3)cc(C(=O)N(C)Cc3cnn(CC)c3C)c2c1 [Compound 328] |
| – | 0.27 µM | – | CCn1ncc(CN(C)C(=O)c2nc(-c3cccc(C(F)(F)F)c3)nc3ccc(Cl)cc23)c1C [Compound 280] |
| – | 15 µM | – | CCn1ncc(CN(C)C(=O)c2cc(-c3cccc(Cl)c3)nc3ccc(F)cc23)c1C [Compound 368] |
| – | 31 µM | – | CCc1n[nH]c(CN(C)C(=O)c2cc(-c3ccccc3Cl)nc3ccc(Cl)cc23)c1C [Compound 298] |
| – | 3.9 µM | – | CCn1ncc(CN(C)C(=O)c2nc(-c3cc(Cl)ccn3)nc3ccc(Cl)cc23)c1C [Compound 333] |
| – | 55 µM | – | CCn1ncc(CN(C)C(=O)c2cc(-c3cccnc3)nc3ccc(Cl)cc23)c1C [Compound 325] |
| – | 25 µM | – | CCn1ncc(CN(C)C(=O)c2cc(-c3ncccn3)nc3ccc(Cl)cc23)c1C [Compound 371] |
| – | 34 µM | – | CCn1ncc(CN(C)C(=O)c2cc(-c3cccnc3)nc3ccc(Cl)cc23)c1C [Compound 364] |
| – | 43 µM | – | Cc1c(CN(C)C(=O)c2cc(-c3cccc(Cl)c3)nc3ccccc23)cnn1C(C)C [Compound 304] |
| – | 1.8 µM | – | CCn1ncc(CN(C)C(=O)c2nc(-c3cccc(Cl)c3)nc3ccc(F)cc23)c1C [Compound 309] |
| – | 21 µM | – | CCn1ncc(CN(C)C(=O)c2nc(-c3ncccc3OC)nc3ccc(Cl)cc23)c1C [Compound 348] |
| – | 41 µM | – | CCn1ncc(CN(C)C(=O)c2cc(-c3cccc(Cl)c3)nc3ccccc23)c1C [Compound 352] |
| – | 132 µM | – | CCn1ncc(CN(C)C(=O)c2nc(-c3ncccn3)nc3ccc(Cl)cc23)c1C [Compound 278] |
| – | 195 µM | – | Cc1c(CN(C)C(=O)c2cc(-c3cccc(Cl)c3)nc3ccccc23)cnn1C [Compound 265] |
| – | 40 µM | – | CCn1ncc(CN(C)C(=O)c2cc(-c3ccccc3Cl)nc3c(C)cccc23)c1C [Compound 340] |
| – | 3.8 µM | – | CCn1ncc(CN(C)C(=O)c2nc(-c3ccc(OCCCN(C)C(=O)OC(C)(C)C)c(OC)c3)nc3ccc(Cl)cc23)c1C [Compound 355] |
| – | 40 µM | – | CCn1ncc(CN(C)C(=O)c2cc(-c3ccccn3)nc3ccccc23)c1C [Compound 326] |
| – | 120 µM | – | CCn1ncc(CN(C)C(=O)c2cc(-c3cn(C)cn3)nc3cc(Cl)ccc23)c1C [Compound 257] |
| – | 27 µM | – | CCn1ncc(CN(C)C(=O)c2cc(-c3cccc(C#N)c3)nc3ccc(Cl)cc23)c1C [Compound 332] |
| – | 90 µM | – | CCn1ncc(CN(C)C(=O)c2cc(-c3ccccc3Cl)nc3cc(F)ccc23)c1C [Compound 253] |
| – | 84 µM | – | CCn1ncc(CN(C)C(=O)c2cc(-c3cccc(C)c3)nc3ccccc23)c1C [Compound 353] |
| – | 38 µM | – | CCn1ncc(CN(C)C(=O)c2cc(-c3cccc(Cl)c3)nc3ccccc23)c1C [Compound 354] |
| – | 25 µM | – | CCn1ncc(CN(C)C(=O)c2cc(-c3ccccc3Cl)nc3cc(Cl)ccc23)c1C [Compound 270] |
| – | 1.4 µM | – | CCn1ncc(CN(C)C(=O)c2nc(-c3cccc(Cl)c3)nc3ccc(Cl)c(C)c23)c1C [Compound 256] |

| SMILES | IC50 ([1]; HB-CLS-2 cells) | IC50 (CREBBP (1084-1701)) | IC50 [1] |
| --- | --- | --- | --- |
| CCn1ncc(CN(C)C(=O)c2cc(-c3ccccc3Cl)nc3cc(OC)ccc23)c1C [Compound 322] | – | 134 µM | – |
| CCn1ncc(CN(C)C(=O)c2cc(-c3ccccc3Cl)nc3cc(C)ccc23)c1C [Compound 263] | – | 87 µM | – |

Reference: patent US20220144812A1, “QUINOLINE DERIVATIVES AND THEIR USE FOR THE TREATMENT OF CANCER” (Epizyme, Inc., priority 2019, published 2022)
